Laboratory results as given in patent US8236826B2, “Diarylether derivatives as antitumor agents” (Otsuka Pharmaceutical Co., Ltd., priority 2005, dated 2012).
Counter-ions that a name gives are not always drawn.

| SMILES | melting point |
| --- | --- |
| CN(CC(=O)N1CCN(Cc2ccc3c(c2)OCO3)CC1)c1ccc(Oc2ccc(NS(=O)(=O)c3ccc(Cl)c(Cl)c3)cn2)c(F)c1 [Example 1615, 3,4-dichloro-N-[6-(2-fluoro-4-{methyl[2-oxo-2-(4-piperonylpiperazin-1-yl)ethyl]amino}phenoxy)pyridin-3-yl]benzenesulfonamide] | 185.6 to 187 °C |
| O=C(Nc1ccc(Oc2ccc(N3CCN(S(=O)(=O)c4ccccc4)CC3)cc2)cc1)c1ccc(Cl)c(Cl)c1 [Example 2031, N-{4-[4-(4-benzenesulfonylpiperazin-1-yl)phenoxy]phenyl}-3,4-dichlorobenzamide] | 191 to 192 °C |
| Cc1cc(N(C)CC(=O)N2CCN(Cc3ccoc3)CC2)ccc1Oc1ccc(NC(=O)c2ccc(Cl)c(Cl)c2)cn1 [Example 718] | 116.5 to 118 °C |
| CCN(CC(=O)N1CCN(Cc2ccc3c(c2)OCO3)CC1)c1ccc(Oc2ccc(NC(=O)c3ccc(C(F)(F)F)cc3)cn2)cc1 [Example 774] | 178 to 180 °C |
| CCN(CC(=O)N1CCN(Cc2ccccc2)CC1)c1ccc(Oc2ccc(NC(=O)c3ccc(Cl)c(Cl)c3)cn2)c(C)c1 [Example 1514] | 102 to 105 °C |
| Cc1cc(N2CCCN(Cc3ccc4c(c3)OCO4)C2=O)ccc1Oc1ccc(NC(=O)c2ccc(Cl)c(Cl)c2)cn1 [Example 1184] | 122 to 124 °C |
| Cc1cc(N(C)CC(=O)N2CCN(Cc3ccc4c(c3)OCO4)CC2)ccc1Oc1ccc(NC(=O)c2ccc(Cl)c(Cl)c2)cn1 (as salt: hydrochloride) [Example 1512] | 183 to 185 °C (dec.) |
| Cc1cc(N(C)CC(=O)N2CCN(Cc3ccccc3)CC2)ccc1Oc1ccc(NC(=O)c2ccc(Cl)c(Cl)c2)cn1 [Example 1516] | 111 to 113 °C |
| O=C(Nc1ccc(Oc2ccc(C(=O)N3CCN(c4ccccn4)CC3)cc2)nc1)c1ccc(C(F)(F)F)cc1 [Example 176] | 222 to 224 °C |
| O=C(Nc1ccc(Oc2ccc(N3CCN(Cc4ccccc4)C3=O)cc2)nc1)c1ccc(C(F)(F)F)cc1 [Example 1181] | 203 to 204 °C |
| COc1ccc(CN2CCCN(c3ccc(Oc4ccc(NC(=O)c5ccc(C(F)(F)F)cc5)cn4)c(C)c3)C2=O)cc1OC [Example 1185] | 155 to 157 °C |
| O=C(Nc1ccc(Oc2ccc(C(=O)N3CCOCC3)cc2)cc1)c1ccc(Cl)c(Cl)c1 [Example 10] | 189 to 192 °C |
| CC(=O)N(CC(=O)N1CCN(Cc2ccccc2)CC1)c1ccc(Oc2ccc(NC(=O)c3ccc(C(F)(F)F)cc3)cn2)cc1 [Example 771] | 161 to 162 °C |
| O=C(Nc1ccc(Oc2ccc(C(=O)N3CCOCC3)cc2)c(F)c1)c1ccc(Cl)c(Cl)c1 [Example 11] | 203 to 204 °C |
| CC(=O)N(CC(=O)N1CCN(Cc2ccc3c(c2)OCO3)CC1)c1ccc(Oc2ccc(NC(=O)c3ccc(Cl)c(Cl)c3)cn2)c(C)c1 [Example 725] | 216 to 217 °C |
| O=C(Nc1ccc(Oc2ccc(N3CCN(C(=O)COc4ccccc4)CC3)cc2)cc1)c1ccc(Cl)c(Cl)c1 [Example 2052] | 171 to 173 °C |
| Cc1cc(N2CCN(Cc3ccc4c(c3)OCO4)C2=O)ccc1Oc1ccc(NC(=O)c2ccc(C(F)(F)F)cc2)cn1 [Example 1504, N-{6-[2-methyl-4-(2-oxo-3-piperonylimidazolidin-1-yl)phenoxy]pyridin-3-yl}-4-trifluoromethylbenzamide] | 188 to 189 °C |
| CN(CC(=O)N1CCN(Cc2ccc3c(c2)OCO3)CC1)c1ccc(Oc2ccc(NC(=O)c3ccc(Cl)c(Cl)c3)cn2)c(F)c1 [Example 729] | 199 to 201 °C |
| Cc1cc(N2CCCN(Cc3ccc4c(c3)OCO4)C2=O)ccc1Oc1ccc(NC(=O)c2ccc(C(F)(F)F)cc2)cn1 [Example 1183] | 165 to 166 °C |
| CC(C)(C)OC(=O)N1CCN(C(=O)CCc2ccc(Oc3ccc(NC(=O)c4ccc(Cl)c(Cl)c4)cc3F)cc2)CC1 [Example 464] | 155 to 157 °C |
| CCN(CC(=O)N1CCN(Cc2ccccc2)CC1)c1ccc(Oc2ccc(NC(=O)c3ccc(C(F)(F)F)cc3)cn2)c(C)c1 (as salt: maleate) [Example 1513] | 165 to 167 °C |
| CC(=O)N(CC(=O)N1CCN(Cc2ccc3c(c2)OCO3)CC1)c1ccc(Oc2ccc(NC(=O)c3ccc(Cl)c(Cl)c3)cn2)c(F)c1 [Example 730] | 233 to 235 °C |
| Cc1cc(N(C)CC(=O)N2CCN(Cc3ccccc3)CC2)ccc1Oc1ccc(NC(=O)c2ccc(C(F)(F)F)cc2)cn1 [Example 1515] | 110 to 111 °C |
| COc1ccc(CN2CCCN(c3ccc(Oc4ccc(NC(=O)c5ccc(Cl)c(Cl)c5)cn4)c(C)c3)C2=O)cc1OC [Example 1187] | 117 to 118 °C |

The next lines start with the values.

| melting point | SMILES |
| --- | --- |
| 177 to 178 °C | O=C(CN1CCOCC1)c1ccc(Oc2ccc(NC(=O)c3ccc(Cl)c(Cl)c3)cc2F)cc1 [Example 2563] |
| 177.8 to 180.1 °C | CCN(CC(=O)N1CCN(Cc2ccc3c(c2)OCO3)CC1)c1ccc(Oc2ccc(NS(=O)(=O)c3ccc(C(F)(F)F)cc3)cn2)c(F)c1 [Example 2712, N-[6-(4-{[2-(4-piperonylpiperazin-1-yl)-2-oxoethyl]ethylamino}-2-fluorophenoxy)pyridin-3-yl]-4-trifluoromethylbenzenesulfonamide] |
| 169 to 171 °C | O=C(Nc1ccc(Oc2ccc(C3=CCN(CCCn4ccnc4)CC3)cc2)cc1)c1ccc(Cl)c(Cl)c1 [Example 2486, 3,4-Dichloro-N-(4-{4-[1-(3-imidazole-1-ylpropyl)-1,2,3,6-tetrahydropyridine-4-yl]phenoxy}phenyl)-benzamide] |
| 116 to 118 °C | O=C(Nc1ccc(Oc2ccc(N3CCN(C(=O)COc4ccc5c(c4)OCO5)CC3)cc2)cc1)c1ccc(Cl)c(Cl)c1 [Example 2053] |
| 195 to 197 °C | O=C(Nc1ccc(Oc2ccc(C3=CCN(C(=O)CN4CCOCC4)CC3)cc2)cc1)c1ccc(Cl)c(Cl)c1 [Example 2565] |
| 157 to 160 °C | CN(C(=O)CN1CCOCC1)C1CCN(c2ccc(Oc3ccc(NC(=O)c4ccc(Cl)c(Cl)c4)cc3)cc2)CC1 [Example 2572] |
| 185 to 189 °C | O=C(C1CCN(c2ccc(Oc3ccc(NS(=O)(=O)c4ccc(Cl)c(Cl)c4)cn3)cc2)CC1)N1CCN(Cc2ccccc2)CC1 [Example 2710, N-(6-{4-[4-(4-benzylpiperazine-1-carbonyl)piperidin-1-yl]phenoxy}pyridin-3-yl)-3,4-dichlorobenzenesulfonamide] |
| 150 to 165 °C | CC(=O)N(c1ccc(CCC(=O)N2CCN(Cc3ccc4c(c3)OCO4)CC2)cc1)c1ccc(NC(=O)c2ccc(Cl)c(Cl)c2)cn1 [Example 2099, N-[6-(Acetyl{4-[3-oxo-3-(4-piperonylpiperazin-1-yl)propyl]phenyl}amino)pyridin-3-yl]-3,4-dichlorobenzamide] |
| 163.1 to 166.5 °C | Cc1cc(N(C)CC(=O)N2CCN(Cc3ccc4c(c3)OCO4)CC2)ccc1Oc1ccc(NC(=O)c2ccc(-n3cccc3)cc2)cn1 [Example 2711, N-[6-(4-{[2-(4-piperonylpiperazin-1-yl)-2-oxoethyl]methylamino}-2-methylphenoxy)pyridin-3-yl]-4-pyrrole-1-ylbenzamide] |
| 133 to 135 °C | Cc1cc(N(C)CC(=O)N2CCN(C(=O)c3ccc4c(c3)OCO4)CC2)ccc1Oc1ccc(NC(=O)c2ccc(Cl)c(Cl)c2)cn1 [Example 2054] |
